From patent publication US20260078130A1, “NAMPT MODULATORS, PREPARATIONS, AND USES THEREOF” (SIRONAX LTD., priority 2022, published 2026)
Like-named read-outs stand apart in the source and are kept apart here.

Biological target: T1, human enzyme NAMPT (full length) (Homo sapiens, UniProt P43490)
T1 construct: human enzyme NAMPT (full length)
Test: NMN fluorescence biochemical assay (stimulation of NMN synthesis by NAMPT)
Details: for EC50: concentration giving half-maximal activation, read-out: Enzymatic EC50; for Enzymatic Emax: fold change of maximal activation compared to DMSO
Experimental: Certain compounds described herein were assayed for their ability to stimulate the synthesis of nicotinamide mononucleotide (NMN) by human enzyme NAMPT (full length). The enzymatic assay was performed in a 384-well plate using a TMD buffer (50 mM Tris-HCl, 10 mM MgCl2, 2 mM DTT, pH 7.5). Purified NAMPT (100 nM) was pre-incubated with 0.2 μL. DMSO solution of the test compound (with a series of concentrations) in 10 μL TMD buffer for 15 min at 37° C. The reaction was initiated by adding 10 μL solution of NAM (50 μM), PRPP (100 μM), and ATP (4 mM) in TMD buffer. After 1 h of incubation at 37 T, an aliquot (20 μL) of the NMN-containing sample was sequentially mixed with 5 μL of 20% acetophenone (in DMSO) and 5 μL of 2M KOH. The mixture was placed on ice for 10 min. Next, 22.5 μL of 100% formic acid was added to each sample, vortexed, and then incubated at 37° C. for 20 min. Fluorescence (Ex/Em=382/445 nm) was measured using an Envision plate reader. The potency measurements for the test compounds were quantified and represented as EC50 (concentration of a compound that gives half-maximal activation) and Emax (fold change of a compound's maximal activation compared to DMSO).

[1] = NMN fluorescence assay, purified human NAMPT 100 nM
[2] = NMN synthesis by purified human NAMPT (100 nM)

T1 sequence (P43490 whole entry): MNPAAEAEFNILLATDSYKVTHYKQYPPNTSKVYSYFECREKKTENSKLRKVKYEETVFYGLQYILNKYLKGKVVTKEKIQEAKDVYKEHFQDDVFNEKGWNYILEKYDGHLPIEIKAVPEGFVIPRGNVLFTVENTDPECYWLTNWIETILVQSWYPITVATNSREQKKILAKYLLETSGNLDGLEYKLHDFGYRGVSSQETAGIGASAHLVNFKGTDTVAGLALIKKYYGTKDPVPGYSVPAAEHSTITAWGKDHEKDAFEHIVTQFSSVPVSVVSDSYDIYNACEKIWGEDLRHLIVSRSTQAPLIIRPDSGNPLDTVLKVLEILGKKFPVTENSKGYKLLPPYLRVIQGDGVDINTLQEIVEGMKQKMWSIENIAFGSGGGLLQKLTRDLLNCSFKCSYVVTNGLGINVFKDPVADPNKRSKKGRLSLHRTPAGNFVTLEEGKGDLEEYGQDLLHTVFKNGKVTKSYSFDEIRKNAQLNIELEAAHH

EC50 [1] [µM] | Enzymatic Emax | EC50 [2] [µM] | SMILES
0.5 to 5 | C (2≥C) |  | Cn1nc(Cl)c(Cl)c1CC1c2ccccc2C(=O)N1C[C@H]1C[C@@]2(CNC(=O)O2)C1 (stereo partly drawn) [Compound 500, (2r,4r)-2-((1-((3,4-dichloro-1-methyl-1H-pyrazol-5-yl)methyl)-3-oxoisoindolin-2-yl)methyl)-5-oxa-7-azaspiro[3.4]octan-6-one]
 | B (3≥B>2) | 0.5 to 5 | Cc1ncccc1CC1c2ccccc2C(=O)N1Cc1ccc2[nH]c(=O)oc2c1 (stereo not drawn) [Compound 165, 6-((1-((2-methylpyridin-3-yl)methyl)-3-oxoisoindolin-2-yl)methyl)benzo[d]oxazol-2(3H)-one]
≥ 5 | C (2≥C) |  | Cn1ncc(Cl)c1CC1c2ccccc2C(=O)N1[C@H]1C[C@H](c2c[nH]c(=O)o2)C1 (stereo partly drawn) [Compound 455, 5-((1r,3r)-3-(1-((4-chloro-1-methyl-1H-pyrazol-5-yl)methyl)-3-oxoisoindolin-2-yl)cyclobutyl)oxazol-2(3H)-one]
≥ 5 | B (3≥B>2) |  | Cn1ncc(Cl)c1CC1c2cccc(CC#N)c2C(=O)N1CC1CC2(CNC(=O)O2)C1 (stereo not drawn) [Compound 432, 2-(1-((4-chloro-1-methyl-1H-pyrazol-5-yl)methyl)-3-oxo-2-((6-oxo-5-oxa-7-azaspiro[3.4]octan-2-yl)methyl)isoindolin-4-yl)acetonitrile]
≥ 5 | B (3≥B>2) |  | Cn1ncc(Cl)c1CC1c2ccccc2C(=O)N1CC1CC(=O)C1 (stereo not drawn) [Compound 556, 3-((4-chloro-1-methyl-1H-pyrazol-5-yl)methyl)-2-((3-oxocyclobutyl)methyl)isoindolin-1-one]
< 0.5 | B (3≥B>2) |  | CN(C)C1CN(c2ccc3c(c2)C(Cc2c(Cl)cnn2C)N(CC2CC4(CNC(=O)O4)C2)C3=O)C1 (stereo not drawn) [Compound 497, 2-((3-((4-chloro-1-methyl-1H-pyrazol-5-yl)methyl)-5-(3-(dimethylamino)azetidin-1-yl)-1-oxoisoindolin-2-yl)methyl)-5-oxa-7-azaspiro[3.4]octan-6-one]
≥ 5 | C (2≥C) |  | Cc1ccc(CN2C(=O)c3ccccc3C2Cc2c(Cl)cnn2C)cc1 (stereo not drawn) [Compound 503, 3-((4-chloro-1-methyl-1H-pyrazol-5-yl)methyl)-2-(4-methylbenzyl)isoindolin-1-one]
≥ 5 | C (2≥C) |  | Cn1ncc(Cl)c1CC1c2ccccc2C(=O)N1Cc1ccc(OC(F)F)cc1 (stereo not drawn) [Compound 528, 3-((4-chloro-1-methyl-1H-pyrazol-5-yl)methyl)-2-(4-(difluoromethoxy)benzyl)isoindolin-1-one]
≥ 5 | C (2≥C) |  | Cn1ncc(Cl)c1CC1c2ccccc2C(=O)N1Cc1ccc2c(cnn2C)c1 (stereo not drawn) [Compound 586, 3-((4-chloro-1-methyl-1H-pyrazol-5-yl)methyl)-2-((1-methyl-1H-indazol-5-yl)methyl)isoindolin-1-one]
≥ 5 | C (2≥C) |  | Cn1c(CC2c3ccccc3C(=O)N2CC2CC3(CNC(=O)O3)C2)ccc(Cl)c1=O (stereo not drawn) [Compound 472, 2-((1-((5-chloro-1-methyl-6-oxo-1,6-dihydropyridin-2-yl)methyl)-3-oxoisoindolin-2-yl)methyl)-5-oxa-7-azaspiro[3.4]octan-6-one]
≥ 5 | C (2≥C) |  | Cn1ncc(Cl)c1CC1c2ccccc2C(=O)N1CC1CC2(CN=C(NC#N)O2)C1 (stereo not drawn) [Compound 520, N-(2-((1-((4-chloro-1-methyl-1H-pyrazol-5-yl)methyl)-3-oxoisoindolin-2-yl)methyl)-5-oxa-7-azaspiro[3.4]oct-6-en-6-yl)cyanamide]
 | A (A>3) | < 0.5 | Cc1ccnc(Cl)c1CC1c2ccccc2C(=O)N1Cc1ccc2[nH]c(=O)oc2c1 (stereo not drawn) [Compound 263, 6-((1-((2-chloro-4-methylpyridin-3-yl)methyl)-3-oxoisoindolin-2-yl)methyl)benzo[d]oxazol-2(3H)-one]
 | B (3≥B>2) | 0.5 to 5 | O=C1c2ccccc2C(Cc2cc(Cl)ccn2)N1Cc1ccc2[nH]c(=O)oc2c1 (stereo not drawn) [Compound 220, 6-((1-((4-chloropyridin-2-yl)methyl)-3-oxoisoindolin-2-yl)methyl)benzo[d]oxazol-2(3H)-one]
0.5 to 5 | C (2≥C) |  | Cn1ncc(Cl)c1CC1c2ccccc2C(=O)N1CC#Cc1c[nH]cn1 (stereo not drawn) [Compound 452, 2-(3-(1H-imidazol-4-yl)prop-2-yn-1-yl)-3-((4-chloro-1-methyl-1H-pyrazol-5-yl)methyl)insoindolin-1-one]

Continued, compound first:

SMILES | EC50 [1] [µM] | Enzymatic Emax | EC50 [2] [µM]
O=C1c2ccccc2C(C(F)(F)c2ccccc2)N1Cc1ccc2[nH]c(=O)oc2c1 (stereo not drawn) [Compound 306, 6-((1-(difluoro(phenyl)methyl)-3-oxoisoindolin-2-yl)methyl)benzo[d]oxazol-2(3H)-one] |  | C (2≥C) | ≥ 5
COc1ccc(CC2c3ccccc3C(=O)N2Cc2ccc3[nH]c(=O)oc3c2)cc1 (stereo not drawn) [Compound 213, 6-((1-(4-methoxybenzyl)-3-oxoisoindolin-2-yl)methyl)benzo[d]oxazol-2(3H)-one] |  | A (A>3) | 0.5 to 5
O=C1c2ccccc2C(Cc2ccc(Br)cn2)N1Cc1ccc2[nH]c(=O)oc2c1 (stereo not drawn) [Compound 262, 6-((1-((5-bromopyridin-2-yl)methyl)-3-oxoisoindolin-2-yl)methyl)benzo[d]oxazol-2(3H)-one] |  | A (A>3) | 0.5 to 5
O=C1c2ccccc2C(Cc2ncccc2Br)N1Cc1ccc2[nH]c(=O)ncc2c1 (stereo not drawn) [Compound 348, 6-((1-((3-bromopyridin-2-yl)methyl)-3-oxoisoindolin-2-yl)methyl)quinazolin-2(1H)-one] | 0.5 to 5 | C (2≥C) | 
N#Cc1nc2cc(CN3C(=O)c4ccccc4C3Cc3ncccc3Br)ccc2[nH]1 (stereo not drawn) [Compound 366, 5-((1-((3-bromopyridin-2-yl)methyl)-3-oxoisoindolin-2-yl)methyl)-1H-benzo[d]imidazole-2-carbonitrile] | 0.5 to 5 | C (2≥C) | 
Cc1nc2cc(CN3C(=O)c4ccccc4C3Cc3ncccc3Br)ccc2[nH]1 (stereo not drawn) [Compound 358, 3-((3-bromopyridin-2-yl)methyl)-2-((2-methyl-1H-benzo[d]imidazol-5-yl)methyl)isoindolin-1-one] | 0.5 to 5 | A (A>3) | 
CC1c2cc(Cl)ccc2C(=O)N1Cc1ccc2[nH]c(=O)oc2c1 (stereo not drawn) [Compound 265, 6-((5-chloro-3-methyl-1-oxoisoindolin-2-yl)methyl)benzo[d]oxazol-2(3H)-one] |  | A (A>3) | ≥ 5
O=C1c2ccccc2C(Cc2nn(C(CO)CO)cc2Cl)N1Cc1ccc2[nH]nnc2c1 (stereo not drawn) [Compound 363, 2-((1H-benzo[d][1,2,3]triazol-5-yl)methyl)-3-((4-chloro-1-(1,3-dihydroxypropan-2-yl)-1H-pyrazol-3-yl)methyl)isoindolin-1-one] | 0.5 to 5 | B (3≥B>2) | 
O=C1c2ccccc2CCN1Cc1ccc2[nH]c(=O)oc2c1 [Compound 8, 6-((1-oxo-3,4-dihydroisoquinolin-2(1H)-yl)methyl)benzo[d]oxazol-2(3H)-one] |  | B (3≥B>2) | ≥ 5
CC(=O)Nc1ncc(CN2C(=O)c3ccccc3C2Cc2ncccc2Br)cn1 (stereo not drawn) [Compound 443, N-(5-((1-((3-bromopyridin-2-yl)methyl)-3-oxoisoindolin-2-yl)methyl)pyrimidin-2-yl)acetamide] | 0.5 to 5 | C (2≥C) | 
O=C1c2ccccc2C(Cc2ncccc2Br)N1CCNc1c[nH]nn1 (stereo not drawn) [Compound 456, 2-(2-((1H-1,2,3-triazol-4-yl)amino)ethyl)-3-((3-bromopyridin-2-yl)methyl)isoindolin-1-one] | ≥ 5 | C (2≥C) | 
Nn1c(=O)oc2cc(CN3C(=O)c4ccccc4C3Cc3ncccc3Br)ccc21 (stereo not drawn) [Compound 256, 3-Amino-6-((1-((3-bromopyridin-2-yl)methyl)-3-oxoisoindolin-2-yl)methyl)benzo[d]oxazol-2(3H)-one] |  | A (A>3) | ≥ 5
CC(C)(C)c1ccc2c(c1)C(=O)N(Cc1ccc(O)cc1)C2=O [Compound 18, 5-(tert-butyl)-2-(4-hydroxybenzyl)isoindoline-1,3-dione] |  | B (3≥B>2) | 0.5 to 5
O=C1c2ccccc2C(Cc2ncccc2Br)N1Cc1ncc(O)cn1 (stereo not drawn) [Compound 505, 3-((3-bromopyridin-2-yl)methyl)-2-((5-hydroxypyrimidin-2-yl)methyl)isoindolin-1-one] | ≥ 5 | C (2≥C) | 
Cn1cc(C#CCN2C(=O)c3ccccc3C2Cc2c(Cl)cnn2C)cn1 (stereo not drawn) [Compound 501, 3-((4-chloro-1-methyl-1H-pyrazol-5-yl)methyl)-2-(3-(1-methyl-1H-pyrazol-4-yl)prop-2-yn-1-yl)isoindolin-1-one] | 0.5 to 5 | C (2≥C) | 
N#Cc1cccc(CC2c3ccccc3C(=O)N2Cc2ccc3[nH]c(=O)oc3c2)c1F (stereo not drawn) [Compound 204, 2-fluoro-3-((3-oxo-2-((2-oxo-2,3-dihydrobenzo[d]oxazol-6-yl)methyl)isoindolin-1-yl)methyl)benzonitrile] |  | B (3≥B>2) | 0.5 to 5
